# Assay results: ChEMBL document CHEMBL4152349, “A Fragment-Derived Clinical Candidate for Antagonism of X-Linked and Cellular Inhibitor of Apoptosis Proteins: 1-(6-[(4-Fluorophenyl)methyl]-5-(hydroxymethyl)-3,3-dimethyl-1 H,2 H,3 H-pyrrolo[3,2- b]pyridin-1-yl)-2-[(2 R,5 …” (J Med Chem, 2018)
# The source made the active and inactive calls. The calls are words filed in the database; no cut-off is given here.
# Assays:
# [1] = Drug level in cynomolgus monkey hepatocytes treated with 1-(6-(4-fluorobenzyl)-3,3-dimethyl-2,3-dihydro-1H-pyrrolo[3,2-b]pyridin-1-yl)-2-((2R,5R)-5-methyl-2-(((R)-3-methylmorpholino)methyl)piperazin-1-yl)ethanone at 10 uM up to 90 mins by LC-MS analysis; type: ADME, cell-based, Macaca fascicularis, Hepatocyte
# [2] = Drug level in CD-1 mouse hepatocytes treated with 1-(6-(4-fluorobenzyl)-3,3-dimethyl-2,3-dihydro-1H-pyrrolo[3,2-b]pyridin-1-yl)-2-((2R,5R)-5-methyl-2-(((R)-3-methylmorpholino)methyl)piperazin-1-yl)ethanone at 10 uM up to 90 mins by LC-MS analysis; type: ADME, cell-based, Hepatocyte
# [3] = Drug level in human hepatocytes treated with 1-(6-(4-fluorobenzyl)-3,3-dimethyl-2,3-dihydro-1H-pyrrolo[3,2-b]pyridin-1-yl)-2-((2R,5R)-5-methyl-2-(((R)-3-methylmorpholino)methyl)piperazin-1-yl)ethanone at 10 uM up to 90 mins by LC-MS analysis; type: ADME, cell-based, Hepatocyte
# [4] = Chromatographic hydrophobicity index, log D of the compound at pH 7.4 by HPLC method; type: physicochemical; conditions: buffer
# MDA-MB-231 [5] = assay: cells; conditions: Homo sapiens, MDA-MB-231, 72 h
# hERG (KCNH2) = hERG (KCNH2) (Homo sapiens, UniProt Q12809); assay: in vitro; conditions: CHO-K1 cells expressing human ERG
# CYP3A4 = CYP3A4 (Homo sapiens, UniProt P08684); assay: in vitro; conditions: human CYP3A4 supersomes
# [6] = Oral bioavailability in Balb/c mouse at 5 mg/kg by UHPLC and ESI mass spectrometry; type: ADME, organism-based; conditions: in vivo
# in vivo = conditions: cynomolgus monkey, po, 5 mg/kg
# [7] = Oral bioavailability in Balb/c mouse at 10 mg/kg by UHPLC and ESI mass spectrometry; type: ADME, organism-based; conditions: in vivo
# MDA-MB-231 [8] = assay: Antitumor activity against human MDA-MB-231 cells xenografted in Balb/c mouse assessed as tumor growth inhibition at 20 mg/kg, po qd after 1 to 22 days; type: functional, organism-based
# Mus musculus [9] = assay: In vivo inhibition of XIAP interaction with SMAC in human MDA-MB-231 cells xenografted in Balb/c SCID mouse at 20 mg/kg, po administered as single dose measured up to 72 hrs by MSD plate-based assay; type: functional, organism-based
# MDA-MB-231 [10] = assay: Antitumor activity against human MDA-MB-231 cells xenografted in Balb/c mouse assessed as tumor growth inhibition at 16 mg/kg, po qd after 1 to 22 days; type: functional, organism-based
# Mus musculus [11] = assay: Reduction in cIAP1 level in tumor of Balb/c SCID mouse xenografted with human MDA-MB-231 cells at 20 mg/kg, po administered as single dose measured up to 72 hrs by MSD plate-based assay; type: functional, organism-based
# hERG (KCNH2), sequence (Q12809 whole entry): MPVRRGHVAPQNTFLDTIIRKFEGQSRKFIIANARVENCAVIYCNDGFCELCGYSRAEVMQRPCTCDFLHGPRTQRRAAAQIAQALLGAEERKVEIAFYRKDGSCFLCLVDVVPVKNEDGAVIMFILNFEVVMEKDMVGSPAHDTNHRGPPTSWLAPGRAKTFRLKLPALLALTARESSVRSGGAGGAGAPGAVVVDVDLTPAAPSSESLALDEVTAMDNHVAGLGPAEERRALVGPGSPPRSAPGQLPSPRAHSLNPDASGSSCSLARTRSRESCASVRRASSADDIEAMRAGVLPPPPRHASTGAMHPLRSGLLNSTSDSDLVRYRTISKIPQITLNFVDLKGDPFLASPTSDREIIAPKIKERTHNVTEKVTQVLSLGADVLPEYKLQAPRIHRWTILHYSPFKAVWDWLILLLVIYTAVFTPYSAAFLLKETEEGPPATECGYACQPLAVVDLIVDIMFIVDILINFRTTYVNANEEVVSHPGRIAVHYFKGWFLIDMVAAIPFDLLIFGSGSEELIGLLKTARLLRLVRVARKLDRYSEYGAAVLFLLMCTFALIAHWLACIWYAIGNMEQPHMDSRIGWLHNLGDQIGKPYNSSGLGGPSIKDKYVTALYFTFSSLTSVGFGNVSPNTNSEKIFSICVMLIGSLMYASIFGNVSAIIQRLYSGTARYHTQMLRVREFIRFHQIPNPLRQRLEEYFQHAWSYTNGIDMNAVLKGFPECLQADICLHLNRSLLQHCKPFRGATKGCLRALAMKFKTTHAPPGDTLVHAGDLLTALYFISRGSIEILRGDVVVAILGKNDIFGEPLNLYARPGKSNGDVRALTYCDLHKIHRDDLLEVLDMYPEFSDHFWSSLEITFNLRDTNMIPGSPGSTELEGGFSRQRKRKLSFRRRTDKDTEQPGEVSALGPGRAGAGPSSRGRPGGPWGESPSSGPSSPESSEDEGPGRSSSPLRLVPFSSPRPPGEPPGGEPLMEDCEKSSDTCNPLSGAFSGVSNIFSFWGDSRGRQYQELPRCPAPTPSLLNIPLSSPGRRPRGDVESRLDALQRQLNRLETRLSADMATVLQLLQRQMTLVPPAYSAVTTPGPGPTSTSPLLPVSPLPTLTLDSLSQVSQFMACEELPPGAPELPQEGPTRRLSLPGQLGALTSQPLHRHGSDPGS
# CYP3A4, sequence (P08684 whole entry): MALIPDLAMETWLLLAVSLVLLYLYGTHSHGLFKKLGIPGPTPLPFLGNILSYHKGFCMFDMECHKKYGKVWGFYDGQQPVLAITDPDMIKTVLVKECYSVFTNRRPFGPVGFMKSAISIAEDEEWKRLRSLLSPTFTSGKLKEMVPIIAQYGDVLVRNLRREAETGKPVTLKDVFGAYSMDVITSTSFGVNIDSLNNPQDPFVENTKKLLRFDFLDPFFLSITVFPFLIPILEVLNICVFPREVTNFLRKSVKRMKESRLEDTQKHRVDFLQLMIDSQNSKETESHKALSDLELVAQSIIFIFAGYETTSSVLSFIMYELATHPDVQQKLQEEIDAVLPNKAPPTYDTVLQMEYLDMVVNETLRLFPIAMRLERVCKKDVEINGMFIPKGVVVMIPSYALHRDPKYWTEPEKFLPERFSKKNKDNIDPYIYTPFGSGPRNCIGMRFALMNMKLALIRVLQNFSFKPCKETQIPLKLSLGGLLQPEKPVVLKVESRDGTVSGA
SMILES,chromatographic logD [4],IC50 (MDA-MB-231 [5]),"inhibition at 10 min, 30 µM (hERG (KCNH2))","half-life at 40 min, 1 µM (CYP3A4)",other results
C[C@@H]1CN(CC(=O)N2CC(C)(C)c3ncc(Cc4ccc(F)cc4)cc32)[C@@H](CNCCO)CN1,,,,,Drug uptake [1]: Active; Drug uptake [2]: Active; Drug uptake [3]: Active
C[C@@H]1CN(CC(=O)N2CC(C)(C)c3cc(=O)n(Cc4ccc(F)cc4)cc32)[C@@H](CN2[C@H](C)COC[C@H]2C)CN1,2.4,,,,
CN[C@@H](C)C(=O)N[C@H](C(=O)N1CCC[C@H]1c1nc(C(=O)c2ccc(F)cc2)cs1)C1CCCCC1 [LCL-161],,7.8 nM,,,
C[C@@H]1CN(CC(=O)N2CC(C)(C)c3nnc(Cc4ccc(F)cc4F)cc32)[C@@H](CN2Cc3c(F)cccc3C2=O)CN1,2.7,0.59 nM,28%,> 70 min,
C[C@@H]1CN(CC(=O)N2CC(C)(C)c3nnc(Cc4ccc(F)cc4F)cc32)[C@@H](CN2Cc3ccccc3C2=O)CN1,2.4,5.4 nM,27%,> 70 min,bioavailability [6]: 3%; bioavailability (in vivo): 18%; bioavailability [7]: 2%
C[C@@H]1CN(CC(=O)N2CC(C)(C)c3ncc([C@@H](O)c4ccc(F)cc4)cc32)[C@@H](CN2[C@H](C)COC[C@H]2C)CN1,2.9,,,,bioavailability (in vivo): 13%; bioavailability [7]: 31%
C[C@@H]1CN(CC(=O)N2CC(C)(C)c3nc(CO)c(Cc4ccc(F)cc4)cc32)[C@@H](CN2CCOC[C@H]2C)CN1,,,,,TGI (MDA-MB-231 [8]): Active; Activity (Mus musculus [9]): Active; TGI (MDA-MB-231 [10]): Active; Activity (Mus musculus [11]): Active
C[C@@H]1CN(CC(=O)N2CC(C)(C)c3nnc(Cc4ccc(F)cc4F)cc32)[C@@H](CN2Cc3cc(F)ccc3C2=O)CN1,2.6,1.9 nM,25%,37 min,
C[C@@H]1CN(CC(=O)N2CC(C)(C)c3c2cc(Cc2ccc(F)cc2)c(=O)n3C)[C@@H](CN2[C@H](C)COC[C@H]2C)CN1,3.2,,,,
C[C@@H]1COCCN1C[C@@H](CN)NCC(=O)N1CC(C)(C)c2ncc(Cc3ccc(F)cc3)cc21,,,,,Drug uptake [1]: Active; Drug uptake [2]: Active; Drug uptake [3]: Active
